Experimental data published in a melting point compilation (Tetko et al.; mined from patent text by program, amines drawn as free bases though some values may be those of a salt).

melting point	Compound
173 to 174 °C	CC(C)c1onc(-c2ccccc2)c1S(=O)(=O)c1ccc(O)cc1
148 to 151 °C	CN1C(=O)N(c2c(Cl)cccc2Cl)Cc2cnc(Nc3ccc(CCO)cc3)nc21
218 to 220 °C	Cc1[nH]c(=O)c(C#N)cc1-c1ccccc1OCCCC(=O)O
218 to 220 °C	Cc1cc(N2CC=C(C(=O)O)CC2)c2cccc(-c3ccc(Cl)cc3Cl)c2n1
145 to 148 °C	COc1ccc2c(c1)c(Cc1cc(=O)n(C3CCCCCC3)[nH]1)c(C)n2C(=O)c1ccc(Cl)cc1
157 to 159 °C	COc1ccc(C(=O)C(CC(=O)O)c2ccccc2)cc1 (stereo not given)
102 to 103 °C	COc1ccc2c(C)c(Cl)ccc2c1C(F)(F)F
121 to 124 °C	CCOc1cc2ncc(C#N)c(Nc3ccc4c(c3)NCC4)c2cc1OCC
98 to 99 °C	O=C(O)c1ccc(OCCCCCCO)cc1F
201 to 203 °C	COc1ccc(S(=O)(=O)Cl)c2c3ccccc3n(C=O)c12
189 to 190 °C	Cc1ncc(CN2CCN(c3ccccc3C)CC2)c(N)n1
158 to 159 °C	Cc1ccc2[nH]cc(C3=C(Br)C(=O)N(C)C3=O)c2c1
97 to 99 °C	C=C1CCc2onc(-c3ccccc3)c2C1=O
177 °C	COC1CC(n2cc(C=CBr)c(=O)[nH]c2=O)OC1CF (stereo not given)
178 to 179 °C	COc1ccc(C(=O)c2c(N)sc3c2CCSC3)cc1
208 to 210 °C	O=S1CCON=C1c1nnc(-c2cccc(Cl)c2)o1 (stereo not given)
232 to 234 °C	COc1cc(C)c2ccc(N3C(=O)C4=C(SCCS4)C3OC(=O)N3CCN(C)CC3)nc2n1 (stereo not given)
73 to 74 °C	CCOC(=O)c1ccc(NCCCOc2ccccc2)cc1
165 to 166 °C	COc1ccc(NC(=O)N(Cc2ccccc2)Cc2ccccn2)c(NC(=O)c2cc(C(C)(C)C)c(O)c(C(C)(C)C)c2)c1
55 to 57 °C	CCOC(=O)c1cc(CC)sc1Nc1cc(C)ccc1[N+](=O)[O-]
189 to 194 °C	COc1cc(-c2c(-c3ccc(F)cc3)nc3ccc(N4CCN(C)CC4)nn23)ccn1
71 to 73 °C	COP(=O)(OC)C(O)=Cc1ccccc1F
146 to 148 °C	CCOCc1nc2c(N)nc3ccccc3c2n1CCCC(C)N(OC)S(C)(=O)=O (stereo not given)
230 to 231 °C	Cn1c2c(c3cccc(C#N)c31)C(=O)NCC2
262 to 265 °C	CCc1nc(N)nc(N)c1-c1ccc(NC)c([N+](=O)[O-])c1
275 °C	Cc1cnc2c(c1)C(=O)c1cc(-c3ccccc3)c(=O)[nH]c1C2=O
111 to 112 °C	COc1c(N)cccc1NC(=O)c1ccc(Br)cc1
119 to 120 °C	COCC1CN(c2ccc3cc(OCC4CC4)ccc3c2)C(=O)O1 (stereo not given)

melting point	Compound
97 to 99 °C	O=[N+]([O-])c1ccccc1C=[N+]([O-])c1cccc(CO)c1
128 to 129 °C	COc1cc(C=O)cc2c1OC1(C=C2Br)CCC1
90 °C	COc1nccc2c1COC2=O
67.5 to 68.8 °C	COc1cc(C(C)C)c(OCC#N)cc1I
140 to 142 °C	CC(C)(C)OC(=O)NNc1ccc(N)cn1
113 °C	CCc1cnc(Nc2ccccn2)s1
194 to 196 °C	CC(C)(C)c1ccc(C#N)cc1NC(=O)Nc1cccnc1
110 to 111 °C	COc1cccc(CN2CCN(C(=S)SC)CC2)c1OC
225 to 229 °C	CC1COc2c(N3CCC(n4ccnn4)C3)c(F)cc3c(=O)c(C(=O)O)cn1c23 (single isomer, unassigned; (-))
174 to 179 °C	CC(C)(C)OC(=O)N1CCC(c2ccc3nc(-c4ccc(C(F)(F)F)cc4)oc3c2)CC1
188 °C	O=C1c2cc(OCc3ccc4cc(F)ccc4n3)ccc2OCC1Oc1cccnc1 (stereo not given)
202 to 203 °C	CCC(O)CNC(=O)c1n[nH]cc1NC(=O)c1ccccn1 (stereo not given)
218 to 220 °C	CCOc1ccccc1-c1ccc(C(N)=O)c(=O)[nH]1
114 to 116 °C	COc1ccnc(-n2cnc3ccccc32)n1
162 °C	COc1ccc(C2COc3c(ccc(O)c3C)C2O)cc1 (stereo not given)
291 to 293 °C	Cc1nc2c3c(c(C(=O)N4CCOCC4)cc2n1C)CCC(c1ccccc1)O3 (stereo not given)
114 to 117 °C	COc1ccc(C(C#Cc2ccccc2)CNC(C)=O)cc1OC1CCCC1 (racemic)
105 to 108 °C	O=C1Cc2c(Cl)cccc2Sc2ccc(C(F)(F)F)cc21
188 to 189 °C	CN1CCC(=C2c3ccccc3C=Cc3ccc(C(=O)OCN4C(=O)CN(C)C4=O)cc32)CC1
216 to 219 °C	Nc1ccc(S(N)(=O)=O)c2c1CCCC2
159 to 161 °C	COc1cc(C(=O)O)ccc1OCCCCCOc1ccc(C#N)cc1
212 to 220 °C	Cc1nc(N)nc(Cl)c1C
118 to 121 °C	COc1ccc2c(c1OC)CC(c1ccccc1)CC2C#N (stereo not given)
225 °C	O=c1ccc2c([nH]1)C(Nc1ccccc1)CCC2 (stereo not given)
124 to 126 °C	CCOC(=O)Oc1ncc(F)c(N=CN(C)C)n1
60 to 61 °C	CC(=O)CC(C)c1ccc(-c2ccccc2F)cc1 (stereo not given)
116 to 119 °C	Cc1ccc(S(C)(=O)=O)c(C)c1Cl

More lines, now with the values behind:

Compound	melting point
CC(NC(=O)Cc1cc(F)cc(F)c1)C(=O)NC1NC(=O)Cc2cc(F)ccc21 (stereo not given)	195 to 200 °C
NCc1ccc2c(c1)ncn2-c1cccc(-c2ccc(F)nc2)c1	141 to 143 °C
CC(=O)OCC1OC(n2cc(C)c(=O)[nH]c2=O)CC1N=[N+]=[N-] (stereo not given)	96 to 98 °C
ClCCC(=C(c1ccccc1)c1ccc(OCCN2CCCC2)cc1)c1ccccc1	112 to 115 °C
C=CCOC(=O)c1ccc(O)c(C23CC4CC(CC(C4)C2)C3)c1F	219 to 222 °C
COC(=O)[C@@H]1C[C@H](C(=O)OC(C)(C)C)N(C(=O)CNC(=O)Nc2cccc(C(=O)O)c2)[C@@H]1c1ccccc1 (racemic)	243 °C
FC(F)(F)c1cccc(N2CCN(Cc3n[nH]c4c(Cl)cccc34)CC2)c1	133 to 134 °C
Fc1ccc2[nH]ccc2c1Cl	41 to 43 °C
O=C(O)CCc1ccc(-c2nc3c(=O)n(CC4CCCCC4)c(=O)n(CC4CCCCC4)c3[nH]2)cc1	> 300 °C
CC(C)c1csc(/C=C/c2cc(N)ccc2Cl)n1	82 to 85 °C
Cn1nnc(-c2ccc3c(c2)c(C2=CCN(CCc4nnnn4C)CC2)cn3-c2ccc(F)cc2)n1	171 to 173 °C
Brc1ccc(-c2nnnn2Cc2ccccc2)s1	196 to 197 °C
O=[N+]([O-])c1ccc(Br)c(SC(F)(F)F)c1	118 °C
CCCc1nc(Cl)c(-c2ccc(C)cc2)c(Cl)n1	91 to 93 °C
CC(=O)OCC1OC(n2cc(C=O)c3c(F)cccc32)C(OC(C)=O)C(OC(C)=O)C1OC(C)=O (stereo not given)	190 to 192 °C
COc1ccc(N(C(=O)CN2C(=O)C(C)(Cc3n[nH]c4ccccc34)C(=O)N(c3cccnc3)c3ccccc32)C(C)C)cc1 (stereo not given)	161 to 165 °C
CCOC(=O)c1ccc(Nc2c(NCc3ccccc3)cc(C(=O)OCC)cc2S(N)(=O)=O)cc1	161 °C
COC(=O)N(C)C1CN(C(=O)Nc2ccc(OC(F)(F)F)cc2)NC1c1ccc(Cl)cc1 (stereo not given)	179 to 181 °C
C[C@H](Cc1ccc2c(c1)OC(C(=O)O)(C(=O)OCCc1ccccc1)O2)NC[C@H](O)c1cccc(Cl)c1 (stereo not given in full)	75 to 82 °C
Nc1cc(N2CCCCC2)c(F)cc1[N+](=O)[O-]	112 to 113 °C
Cc1cc(C)c(CC(C)CC(C(=O)C(CC(C)Cc2c(C)cc(C)cc2C)N2C(=O)c3ccccc3C2=O)N2C(=O)c3ccccc3C2=O)c(C)c1 (stereo not given)	131 to 132 °C
CSc1c(C)cc(O)c(C(=O)Nc2ccc(S(=O)(=O)C(F)(F)F)cc2Cl)c1C	201 to 202 °C
COc1c(O)c(C)c(CN2CCOCC2)c(O)c1OC	127 to 130 °C

Compound	melting point
COc1ccc(C2(C#Cc3csc(C(=O)O)c3)CCC(=O)CC2)cc1OC1CCCC1	80 to 82 °C
CCCCCCCCCCCCC(=O)CC#CCCCC(=O)O	79 to 80.5 °C
CCCCn1c(=O)c2[nH]c(/C=C/c3cc(OC)c(OC)c(OC)c3)nc2n(CCCC)c1=O	206 to 207 °C
O=S(=O)(NS(=O)(=O)OCC(F)(F)F)OCC(F)(F)F	55 to 58 °C
COC(=O)c1cc(-c2ccc(C)cc2)n(-c2ccc(S(N)(=O)=O)cc2)n1	138 to 139 °C
N#Cc1c(N2CCCCC2)cc(-c2cccs2)c2c1Cc1ccccc1-2	148 to 150 °C
CCCCN(CCCC)p1oc2c(C(C)(C)C)cc(C(C)(C)C)cc2c2cc(C(C)(C)C)cc(C(C)(C)C)c2o1	140 °C
Nc1ccc(Oc2ccc3sncc3c2)c(C(F)(F)F)c1	136 °C
CCOC(=O)[C@H](C[C@H](Cc1ccc(OC)c(OCCCOC)c1)C(C)C)NC(=O)OC(C)(C)C	59 to 60 °C
CN(C)c1nc(=O)c(C(C)(C)C)nn1N	168 to 169 °C
C[Si](C)(C)C#Cc1ccc2c(c1)C1(c3ccccc3-c3ccccc31)c1cc(C#C[Si](C)(C)C)ccc1-2	267 to 269 °C
CCCn1nc2c(N)nc3ccccc3c2c1CCCc1cc(-c2ccccc2)no1	176 to 178 °C
CNC(=N)Cc1nc(C(C)C)c(Sc2cc(Cl)cc(Cl)c2)n1C	176 to 178 °C
O=C1C=C(O)CC(CCC2CCCC2)(C2CCCC2)O1 (stereo not given)	130 to 132 °C
CCCCCOc1ccc(C#N)cc1-c1cc(C(=N)Nc2cccc(C(F)(F)F)c2)ccc1OCCCCC	74 to 75 °C
COC(=O)c1cccc(Oc2cccc(-c3nn(Cc4ccc(C(F)(F)P(=O)(O)O)c(F)c4)c(=Nc4ccc(Cl)c(Cl)c4)s3)c2)c1	137 to 139 °C
C=CC(=O)OCCS(=O)(=O)c1ccc(O)cc1	91 to 92 °C
CC(CCl)(c1cc(Cl)nnc1Cl)C(Cl)Cl (stereo not given)	82 to 85 °C
C=CCCC(=O)N1CCc2nnc(NN)cc2C1	132 to 134 °C
CC(=O)Oc1cc2c(s1)CCN(C(C(=O)C1CC1)c1ccccc1F)C2 (stereo not given)	120 to 122 °C
Cc1ccc([C@@H](O)[C@H](Br)C(=O)N2C(=O)O[C@H](c3ccccc3)[C@@H]2C)cc1	139 °C
OCCCCOCCCCOCCCCOCCCCOCCCCO	34.5 to 36.5 °C
